From the supplement of paper PMC9512659

Key:
[1] = test system: Mycobacterium tuberculosis Erdman (pMV306hsp+LuxG13); test: GRinf, normalised growth-rate inhibition at infinite dose (GR value (unitless, negative = killing)); higher = less potent
Protocol: (§1)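 DiaMOND pairwise dose responses of an equipotent two-drug mixture (1.5-fold, 10-dose series) against autoluminescent M. tuberculosis Erdman in 384-well plates. Growth inhibition was read by OD600 (luminescence for dormancy) in seven media at a constant and a terminal time point; metrics are means of at least biological duplicates. Einf and AUC25 higher = more potent; GRinf lower = more potent; log2FIC negative = synergy.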

[2] = test system: Mycobacterium tuberculosis Erdman (pMV306hsp+LuxG13); test: AUC25, normalised area under the dose-response curve up to IC25 (normalised AUC (unitless)); higher = more potent
Protocol: as §1

[3] = test system: Mycobacterium tuberculosis Erdman (pMV306hsp+LuxG13); test: log2 fractional inhibitory concentration at 50% inhibition (log2 FIC); higher = more antagonistic
Protocol: as §1

[4] = test system: Mycobacterium tuberculosis Erdman (pMV306hsp+LuxG13); test: log2 fractional inhibitory concentration at 90% inhibition (log2 FIC); higher = more antagonistic
Protocol: as §1

[5] = test system: Mycobacterium tuberculosis Erdman (pMV306hsp+LuxG13); test: Einf, effect of the drug pair at infinite dose (maximum growth inhibition) (fraction inhibition (0-1)); higher = more potent; extreme values may be limits of the assay
Protocol: as §1

NC(=O)c1cnccn1 [pyrazinamide] + CC(=O)NC[C@H]1CN(c2ccc(N3CCSCC3)c(F)c2)C(=O)O1 [sutezolid]
Settings	AUC25, [2]	Einf, [5]	GRinf, [1]	log2 fractional inhibitory concentration, [3]	log2 fractional inhibitory concentration, [4]
growth medium: acidic pH 5.7, glycerol, time point: constant time point	0.128	0.818	-0.0805	-0.856	–
growth medium: acidic pH 5.7, glycerol, time point: terminal time point	0.124	0.99	-0.272	-0.292	-0.518
growth medium: butyrate 5 mM, time point: constant time point	0.0878	0.913	0.0976	0.557	–
growth medium: butyrate 5 mM, time point: terminal time point	0.0684	0.949	0.124	–	–
growth medium: cholesterol 0.05 mM, time point: constant time point	0.0696	1	-1	0.194	–
growth medium: cholesterol 0.2 mM (cholesterol-high), time point: constant time point	0.0979	0.996	-0.785	0.242	0.258
growth medium: cholesterol 0.2 mM (cholesterol-high), time point: terminal time point	0.105	1	-0.929	-0.145	0.207
growth medium: valerate 0.1%, time point: constant time point	0.0804	0.884	-0.147	0.999	–
growth medium: valerate 0.1%, time point: terminal time point	0.0613	0.962	-0.0671	0.436	–

growth medium: hypoxic dormancy (butyrate + nitrate), then recovery
Settings	AUC25, [2]	Einf, [5]	GRinf, [1]	log2 fractional inhibitory concentration, [3]
time point: constant time point	0.0726	0.984	-0.401	–
time point: terminal time point	0.0286	0.786	-0.5	0.898

CO[C@H]1/C=C/O[C@@]2(C)Oc3c(C)c(O)c4c(O)c(c(/C=N/N5CCN(C)CC5)c(O)c4c3C2=O)NC(=O)/C(C)=C\C=C\[C@H](C)[C@H](O)[C@@H](C)[C@@H](O)[C@@H](C)[C@H](OC(C)=O)[C@@H]1C [rifampicin] + CC(C)=CCC/C(C)=C/CNCCNC1C2CC3CC(C2)CC1C3 [SQ109]
Settings	AUC25, [2]	Einf, [5]	GRinf, [1]	log2 fractional inhibitory concentration, [3]	log2 fractional inhibitory concentration, [4]
growth medium: butyrate 5 mM, time point: constant time point	0.0902	0.914	-0.0141	0.188	–
growth medium: butyrate 5 mM, time point: terminal time point	0.0763	0.959	-0.032	0.0743	-0.456
growth medium: cholesterol 0.2 mM (cholesterol-high), time point: constant time point	0.03	0.992	-0.905	0.231	-0.46
growth medium: cholesterol 0.2 mM (cholesterol-high), time point: terminal time point	0.0325	0.999	-0.83	0.286	-0.383
growth medium: standard 7H9 OADC glycerol, time point: constant = terminal time point (4.2 d)	0.0536	0.909	0.0752	0.0639	–
growth medium: valerate 0.1%, time point: constant time point	0.0301	0.956	0.0222	-0.112	-0.583
growth medium: valerate 0.1%, time point: terminal time point	0.0271	0.962	0.0133	-0.128	-0.625

growth medium: hypoxic dormancy (butyrate + nitrate), then recovery
Settings	AUC25, [2]	Einf, [5]	GRinf, [1]	log2 fractional inhibitory concentration, [3]	log2 fractional inhibitory concentration, [4]
time point: constant time point	0.0556	0.984	-0.371	-1.51	-1.97
time point: terminal time point	0.0342	0.964	0.12	-0.863	-1.05

COc1nc2ccc(Br)cc2cc1[C@@H](c1ccccc1)[C@@](O)(CCN(C)C)c1cccc2ccccc12 [bedaquiline] + CC(C)=CCC/C(C)=C/CNCCNC1C2CC3CC(C2)CC1C3 [SQ109]
Settings	AUC25, [2]	Einf, [5]	GRinf, [1]	log2 fractional inhibitory concentration, [3]	log2 fractional inhibitory concentration, [4]
growth medium: butyrate 5 mM, time point: constant time point	0.0731	0.963	-0.11	0.85	0.414
growth medium: butyrate 5 mM, time point: terminal time point	0.0507	0.979	-0.0824	0.817	0.616
growth medium: cholesterol 0.05 mM, time point: constant time point	0.085	0.82	-0.737	0.241	–
growth medium: cholesterol 0.2 mM (cholesterol-high), time point: constant time point	0.0719	1	-0.847	0.546	0.667
growth medium: cholesterol 0.2 mM (cholesterol-high), time point: terminal time point	0.0884	1	-0.779	0.31	0.799
growth medium: standard 7H9 OADC glycerol, time point: constant = terminal time point (4.2 d)	0.0609	0.967	-0.158	0.0969	–
growth medium: valerate 0.1%, time point: constant time point	0.0593	0.996	-0.151	0.191	-0.0839
growth medium: valerate 0.1%, time point: terminal time point	0.047	0.993	-0.127	0.276	-0.384

growth medium: hypoxic dormancy (butyrate + nitrate), then recovery
Settings	AUC25, [2]	Einf, [5]	GRinf, [1]	log2 fractional inhibitory concentration, [3]	log2 fractional inhibitory concentration, [4]
time point: constant time point	0.0746	0.992	-0.388	1.24	1.04
time point: terminal time point	0.0292	0.964	0.0989	-0.811	-0.972

NC(=O)c1cnccn1 [pyrazinamide] + CC(C)=CCC/C(C)=C/CNCCNC1C2CC3CC(C2)CC1C3 [SQ109]
Settings	AUC25, [2]	Einf, [5]	GRinf, [1]	log2 fractional inhibitory concentration, [3]	log2 fractional inhibitory concentration, [4]
growth medium: butyrate 5 mM, time point: constant time point	0.0786	0.915	-0.00249	0.356	–
growth medium: butyrate 5 mM, time point: terminal time point	0.0634	0.946	0.022	0.129	–
growth medium: cholesterol 0.05 mM, time point: constant time point	0.116	0.894	-0.787	–	–
growth medium: cholesterol 0.2 mM (cholesterol-high), time point: constant time point	0.0592	0.977	-0.852	0.707	-0.16
growth medium: cholesterol 0.2 mM (cholesterol-high), time point: terminal time point	0.0665	0.997	-0.789	0.668	-0.347
growth medium: standard 7H9 OADC glycerol, time point: constant = terminal time point (4.2 d)	0.032	0.84	0.242	–	–
growth medium: valerate 0.1%, time point: constant time point	0.0384	0.933	0.0532	-0.164	–
growth medium: valerate 0.1%, time point: terminal time point	0.0424	0.944	0.0196	-0.462	–
